US20210207064A1, “COMPOUND FOR RESTORING CONTAMINATED SOIL OR CONTAMINATED WATER” (FNG RESEARCH CO., LTD., priority 2018, published 2021)

Tests used:
[1] = Heavy metal removal ability test in contaminated soil (ICP-MS), cadmium; details: for Cadmium (Cd) Adsorption amount: contaminated soil; for Cadmium (Cd) Adsorption rate: relative to EDTA control
Protocol: (§1) (1) Preparation of Soil Contaminated with Heavy Metal
(§2) After collecting and pulverizing uncontaminated soil, fine particles obtained by using a mesh were mixed with the aqueous heavy metal solution to prepare soil samples contaminated with heavy metals.
(§3) Each 3 ml of the prepared aqueous solution was added to a soil sample contaminated with heavy metals and mixed for 5 minutes.
(§4) 50 ml of distilled water was added to the contaminated soil mixed with the aqueous solution for restoring soil, stirred for 20 minutes, and settled for 1 hour, and a supernatant was prepared as a sample solution.
(§5) The prepared sample solution was analyzed for the heavy metal component using an Inductively Coupled Plasma Mass Spectrometer (ICP-MS) (Xseries™ 2, Thermo Fisher Scientific, UK).
(§6) Adsorption rate of heavy metals (%)=(Adsorption amount of Embodiment/Adsorption amount of Control)×100 Equation 1

[2] = Formaldehyde (formalin) removing ability test (GC); details: 2.0% formaldehyde solution, 3 molar equivalents of compound, room temperature; for Formaldehyde GC Area, 30 min: after 30 min; for Formaldehyde GC Area, 180 min: after 180 min; for Formaldehyde GC Area, Initial: initial state
[3] = Heavy metal removal ability test in contaminated soil around a factory (WAK-Me test kit); details: 1.0 wt % aqueous solution, colour comparison test kit
Protocol: The contaminated soil around the factory in the industrial complex was collected, pulverized, and meshed to prepare fine particles of soil samples.
Each 3 ml of aqueous solutions for restoring soil was added to soil samples and mixed for 5 minutes.

human skin = test: Skin irritation test of active ingredient (patch method, CTFA guidelines); assay type: in vivo; details: 24 h patch; for Test result (number of subject) (+) / Test result (number of subject) (++) / Test result (number of subject) (±) / Test result (number of subject) (−): 20 people; for Test result (number of subject) (+): (+) apparent reddening; for Test result (number of subject) (++): (++) more reddened and swollen; for Test result (number of subject) (±): (±) slightly reddish; for Test result (number of subject) (−): (−) no erythema
Protocol: A filter paper disk was placed in an 8 mm diameter, 10 panels of pin chamber.
After 24 hours, the pin chamber was removed, and skin conditions were visually observed. The degree and grade for skin irritation were calculated according to the following Equation 2, and the results are shown in Table 4 below.
[Criteria for Skin Irritation]
(−): No erythema or particularly no symptoms; (±): slightly reddish than the periphery; (+): Apparent reddening than periphery; (++): More reddened and swollen than periphery.
[Grade for Skin Irritation]
Degree of irritation 0-0.1: Grade I (unstimulated);
Degree of irritation 0.11-0.3: Grade II (weakly stimulated);
Degree of irritation 0.31-0.5: Grade III (moderately stimulated);
Degree of irritation 0.51 or more: Grade IV (strongly stimulated)

[4] = Heavy metal removal ability test in contaminated soil (ICP-MS), arsenic; details: for Arsenic (As) Adsorption amount: contaminated soil; for Arsenic (As) Adsorption rate: relative to EDTA control
Protocol: as §1, §2, §3, §4, §5, §6

[5] = Heavy metal removal ability test in contaminated soil (ICP-MS), nickel; details: for Nickel (Ni) Adsorption amount: contaminated soil; for Nickel (Ni) Adsorption rate: relative to EDTA control
Protocol: as §1, §2, §3, §4, §5, §6

Structure (SMILES)	Cadmium (Cd) Adsorption amount ([1]; content 0.5% aqueous solution)	Cadmium (Cd) Adsorption rate ([1]; content 0.5%)	Cadmium (Cd) Adsorption amount ([1]; content 1.0% aqueous solution)	Cadmium (Cd) Adsorption rate ([1]; content 1.0%)	Cadmium (Cd) Adsorption amount ([1]; content 2.0% aqueous solution)	Cadmium (Cd) Adsorption rate ([1]; content 2.0%)	Formaldehyde GC Area, 30 min [2]	Formaldehyde GC Area, 180 min [2]	Formaldehyde GC Area, Initial [2]	Total amount (Cu, Zn, Mn, Ni, Cd) [3]	Test result (number of subject) (+) (human skin; content 0.1 wt %)	Test result (number of subject) (++) (human skin; content 0.1 wt %)	Test result (number of subject) (±) (human skin; content 0.1 wt %)	Test result (number of subject) (−) (human skin; content 0.1 wt %)	Degree of irritation (human skin; content 0.1 wt %)	Grade for skin irritation (human skin; content 0.1 wt %)	Test result (number of subject) (+) (human skin; content 0.5 wt %)	Test result (number of subject) (++) (human skin; content 0.5 wt %)	Test result (number of subject) (±) (human skin; content 0.5 wt %)	Test result (number of subject) (−) (human skin; content 0.5 wt %)	other results
O=C(O)CN1CCN(CC(=O)O)CCN(CC(=O)O)CCN(CC(=O)O)CC1 [Embodiment 5, 2,2′,2″,2′″-(1,4,7,10-tetraazacyclododecane-1,4,7,10-tetrayl)tetraacetic Acid]	60 ppm	146%	66 ppm	161%	74 ppm	180%	0.179 mAU*min	0 mAU*min	0.305 mAU*min	≤5 ppm	0	0	0	20	0	I (Degree of irritation 0-0.1: Grade I (unstimulated))	0	0	0	20	Degree of irritation (human skin; content 0.5 wt %): 0; Grade for skin irritation (human skin; content 0.5 wt %): I (Degree of irritation 0-0.1: Grade I (unstimulated)); Test result (number of subject) (+) (human skin; content 1.0 wt %): 0; Test result (number of subject) (++) (human skin; content 1.0 wt %): 0; Test result (number of subject) (±) (human skin; content 1.0 wt %): 1; Test result (number of subject) (−) (human skin; content 1.0 wt %): 19; Degree of irritation (human skin; content 1.0 wt %): 0.05; Grade for skin irritation (human skin; content 1.0 wt %): I (Degree of irritation 0-0.1: Grade I (unstimulated)); Arsenic (As) Adsorption amount ([4]; content 0.5% aqueous solution): 41 ppm; Arsenic (As) Adsorption rate ([4]; content 0.5%): 164%; Arsenic (As) Adsorption amount ([4]; content 1.0% aqueous solution): 46 ppm; Arsenic (As) Adsorption rate ([4]; content 1.0%): 184%; Arsenic (As) Adsorption amount ([4]; content 2.0% aqueous solution): 53 ppm; Arsenic (As) Adsorption rate ([4]; content 2.0%): 212%; Nickel (Ni) Adsorption amount ([5]; content 0.5% aqueous solution): 83 ppm; Nickel (Ni) Adsorption rate ([5]; content 0.5%): 169%; Nickel (Ni) Adsorption amount ([5]; content 1.0% aqueous solution): 85 ppm; Nickel (Ni) Adsorption rate ([5]; content 1.0%): 173%; Nickel (Ni) Adsorption amount ([5]; content 2.0% aqueous solution): 89 ppm; Nickel (Ni) Adsorption rate ([5]; content 2.0%): 182%
O=C(O)c1ccc(N2CCN(c3ccc(C(=O)O)cc3)CCN(c3ccc(C(=O)O)cc3)CCN(c3ccc(C(=O)O)cc3)CC2)cc1 [Embodiment 6, 4,4′,4″,4′″-(1,4,7,10-tetraazacyclododecane-1,4,7,10-tetrayl)tetrabenzoic Acid]	61 ppm	149%	69 ppm	168%	77 ppm	188%	0.183 mAU*min	0 mAU*min	0.305 mAU*min	≤5 ppm	0	0	0	20	0	I (Degree of irritation 0-0.1: Grade I (unstimulated))	0	0	0	20	Degree of irritation (human skin; content 0.5 wt %): 0; Grade for skin irritation (human skin; content 0.5 wt %): I (Degree of irritation 0-0.1: Grade I (unstimulated)); Test result (number of subject) (+) (human skin; content 1.0 wt %): 0; Test result (number of subject) (++) (human skin; content 1.0 wt %): 0; Test result (number of subject) (±) (human skin; content 1.0 wt %): 1; Test result (number of subject) (−) (human skin; content 1.0 wt %): 19; Degree of irritation (human skin; content 1.0 wt %): 0.05; Grade for skin irritation (human skin; content 1.0 wt %): I (Degree of irritation 0-0.1: Grade I (unstimulated)); Arsenic (As) Adsorption amount ([4]; content 0.5% aqueous solution): 42 ppm; Arsenic (As) Adsorption rate ([4]; content 0.5%): 168%; Arsenic (As) Adsorption amount ([4]; content 1.0% aqueous solution): 45 ppm; Arsenic (As) Adsorption rate ([4]; content 1.0%): 180%; Arsenic (As) Adsorption amount ([4]; content 2.0% aqueous solution): 48 ppm; Arsenic (As) Adsorption rate ([4]; content 2.0%): 192%; Nickel (Ni) Adsorption amount ([5]; content 0.5% aqueous solution): 81 ppm; Nickel (Ni) Adsorption rate ([5]; content 0.5%): 165%; Nickel (Ni) Adsorption amount ([5]; content 1.0% aqueous solution): 83 ppm; Nickel (Ni) Adsorption rate ([5]; content 1.0%): 169%; Nickel (Ni) Adsorption amount ([5]; content 2.0% aqueous solution): 87 ppm; Nickel (Ni) Adsorption rate ([5]; content 2.0%): 178%
O=C(O)c1cncc(N2CCN(c3cncc(C(=O)O)c3)CCN(c3cncc(C(=O)O)c3)CCN(c3cncc(C(=O)O)c3)CC2)c1 [Embodiment 7, 5,5′,5″,5′″-(1,4,7,10-tetraazacyclododecane-1,4,7,10-tetrayl)tetranicotinic Acid]	62 ppm	151%	72 ppm	176%	76 ppm	185%	0.181 mAU*min	0 mAU*min	0.305 mAU*min	≤5 ppm	0	0	0	20	0	I (Degree of irritation 0-0.1: Grade I (unstimulated))	0	0	0	20	Degree of irritation (human skin; content 0.5 wt %): 0; Grade for skin irritation (human skin; content 0.5 wt %): I (Degree of irritation 0-0.1: Grade I (unstimulated)); Test result (number of subject) (+) (human skin; content 1.0 wt %): 0; Test result (number of subject) (++) (human skin; content 1.0 wt %): 0; Test result (number of subject) (±) (human skin; content 1.0 wt %): 0; Test result (number of subject) (−) (human skin; content 1.0 wt %): 20; Degree of irritation (human skin; content 1.0 wt %): 0; Grade for skin irritation (human skin; content 1.0 wt %): I (Degree of irritation 0-0.1: Grade I (unstimulated)); Arsenic (As) Adsorption amount ([4]; content 0.5% aqueous solution): 41 ppm; Arsenic (As) Adsorption rate ([4]; content 0.5%): 164%; Arsenic (As) Adsorption amount ([4]; content 1.0% aqueous solution): 45 ppm; Arsenic (As) Adsorption rate ([4]; content 1.0%): 180%; Arsenic (As) Adsorption amount ([4]; content 2.0% aqueous solution): 51 ppm; Arsenic (As) Adsorption rate ([4]; content 2.0%): 204%; Nickel (Ni) Adsorption amount ([5]; content 0.5% aqueous solution): 92 ppm; Nickel (Ni) Adsorption rate ([5]; content 0.5%): 188%; Nickel (Ni) Adsorption amount ([5]; content 1.0% aqueous solution): 97 ppm; Nickel (Ni) Adsorption rate ([5]; content 1.0%): 198%; Nickel (Ni) Adsorption amount ([5]; content 2.0% aqueous solution): 102 ppm; Nickel (Ni) Adsorption rate ([5]; content 2.0%): 208%
